Values of other authors as cited in patent US20070292523A1, “Dihydropyrimidine Formulations” (priority 2004, published 2007).
Each block holds one molecule with its values, some of them ahead of it.

Key:
cytochrome P450 = conditions: nimodipine with cimetidine (Drugs Aging, 1995, 6, 229-42)
[1] = tested on: presystemic oxidative metabolism of nimodipine; conditions: nimodipine and valproic acid administered in combination (Drugs Aging, 1995, 6, 229-42)

Compound: CN/C(=N/CCSCc1nc[nH]c1C)NC#N [cimetidine]
bioavailability of nimodipine (cytochrome P450): approximate doubling of the bioavailability of nimodipine

solubility in water: practically insoluble in water
Compound: COCCOC(=O)C1=C(C)NC(C)=C(C(=O)OC(C)C)C1c1cccc([N+](=O)[O-])c1 (stereo not drawn) [nimodipine, Nimodipine]

Compound: CCCC(CCC)C(=O)O [valproic acid]
plasma concentrations of nimodipine [1]: increased plasma concentrations of nimodipine
